# Test results reported in patent publication EP4741383A1, “COMPOUND AND USE THEREOF AS ANTI-CANCER DRUG” (Tyligand Bioscience (Shanghai) Limited, priority 2023, dated 2025).
# Where two headings read alike, the source gives them in different places.
# Target: T1, CYP3A4 (Homo sapiens, UniProt P08684)
# T1 construct: tissue Corning or Xenotech; host or cells: human liver microsomes
# Test: CYP450 inhibition in human liver microsomes, CYP3A4 (midazolam and testosterone substrates)
# Type: in vitro ADME
# Description: According to standard methods in the field for the study of cytochrome P450 enzyme systems, such as the method described in Kerns, Edward H. and Di Li et al., Drug-like Properties: Concepts, Structure Design and Methods: from ADME to Toxicity Optimization (2008), San Diego, Academic Press, and Lin, Tong et al., In Vitro Assessment of Cytochrome P450 Inhibition: Strategies for Increasing LC/MS-Based Assay Throughput Using a One-Point IC50 Method and Multiplexing High-Performance Liquid Chromatography (J. Pharm. Sci. 2007, 96 (9), 2485). The inhibitory effect of the disclosed compounds on the cytochrome P450 enzyme system was similarly examined below.
# Human liver microsomes were purchased from Corning or Xenotech. The test compounds were evaluated by detecting the metabolism of substrates for different Cyp450 isoforms by human liver microsomes.
# 0.1 M potassium phosphate buffer (K-buffer, pH 7.4) was pre-warmed.
# 100 mM K-buffer was prepared by mixing 9.5 mL of stock solution A (1 M potassium dihydrogen phosphate, prepared by dissolving 136.5 g of potassium dihydrogen phosphate in 1 L of Milli-Q water) with 40.5 mL of stock solution B (1 M potassium hydrogen phosphate, prepared by dissolving 174.2 g of potassium hydrogen phosphate in 1 L of Milli-Q water). The total volume was adjusted to 500 mL with Milli-Q water, and the buffer was titrated to pH 7.4 using KOH or H3PO4.
# Test compound solution and specific inhibitor solution (400× dilution) were prepared in a 96-well plate. For the test compound, 8 µL of 10 mM test compound was transferred into 12 µL of ACN. For specific inhibitors of CYP1A2, CYP2C9, and CYP2D6: 12 µL of 1 mM α-naphthoflavone, 10 µL of 40 mM sulfaphenazole, 10 µL of 10 mM quinidine, and 8 µL of DMSO were mixed. For specific inhibitors of CYP3A4, CYP2B6, CYP2C8, and CYP2C19: 8 µL of DMSO stock solution was added to 12 µL of ACN.
# A 4× diluted NADPH solution was prepared by dissolving 66.7 mg of NADPH in 10 mL of 0.1 M K-buffer (pH 7.4). Human liver microsome (HLM) solutions were prepared in K-buffer, wherein 0.1 mg/mL for CYP1A2, CYP2C9, CYP2D6, CYP3A4, and CYP2B6, 0.5 mg/mL for CYP2C19, 0.2 mg/mL for CYP2C8. 4× diluted substrate dilution solutions (2 mL per isozyme) were prepared in K-buffer (HLM was added on ice if required) with the following concentrations: 120 µM for CYP1A2, 40 µM for CYP2C9, 140 µM with 1.6 mg/mL HLM for CYP2C19, 40 µM for CYP2D6, 320 µM and 20 µM for CYP3A4 (two concentrations), 280 µM for CYP2B6, 40 µM with 0.4 mg/mL HLM for CYP2C8.
# A 0.2 mg/mL HLM solution was prepared on ice (by adding 10 µL of 20 mg/mL stock to 990 µL of 0.1 M K buffer). To the assay wells, 400 µL of the 0.2 mg/mL HLM solution was added, followed by 2 µL of the 400× diluted test compound solution, which was added on ice to the designated wells. To the assay wells, 200 µL of the 0.2 mg/mL HLM solution was added, followed by 1 µL of the specific inhibitor solution, which was added on ice to the designated wells. The following solutions were added in duplicate to the 96-well analysis plate kept on ice: 30 µL of the 2× diluted test compound solution and the specific inhibitor solution were added to the 0.2 mg/mL HLM solution, 15 µL of the 4× diluted substrate solution was added. The 96-well assay plate and the NADPH solution were pre-incubated at 37 °C for 5 min. The reaction was initiated by adding 15 µL of the pre-warmed 8 mM NADPH solution to the assay plate. Reactions were performed at 37 °C for the following durations according to the P450 isoform: 5 min for CYP3A4, 10 min for CYP1A2, CYP2B6, CYP2C8, CYP2C9, and CYP2D6, 45 min for CYP2C19. Reactions were terminated by adding 120 µL of ACN containing internal standards. The final internal standard concentrations were: 0.1 µM for CYP2C19, CYP1A2, CYP3A4 (midazolam), and CYP2D6, 200 ng/mL for CYP3A4 (testosterone), 0.31 µM for CYP2C9, 0.36 µM (100 ng/mL) for CYP2B6, 40 ng/mL for CYP2C8. […]
# [1] = pH 7.4, probe midazolam, midazolam substrate, read-out: % CYP inhibition @ 10 µM 3A4 (midazolam)
# [2] = pH 7.4, probe testosterone, testosterone substrate, read-out: % CYP inhibition @ 10 µM 3A4 (testosterone)
# T1 sequence (P08684 whole entry): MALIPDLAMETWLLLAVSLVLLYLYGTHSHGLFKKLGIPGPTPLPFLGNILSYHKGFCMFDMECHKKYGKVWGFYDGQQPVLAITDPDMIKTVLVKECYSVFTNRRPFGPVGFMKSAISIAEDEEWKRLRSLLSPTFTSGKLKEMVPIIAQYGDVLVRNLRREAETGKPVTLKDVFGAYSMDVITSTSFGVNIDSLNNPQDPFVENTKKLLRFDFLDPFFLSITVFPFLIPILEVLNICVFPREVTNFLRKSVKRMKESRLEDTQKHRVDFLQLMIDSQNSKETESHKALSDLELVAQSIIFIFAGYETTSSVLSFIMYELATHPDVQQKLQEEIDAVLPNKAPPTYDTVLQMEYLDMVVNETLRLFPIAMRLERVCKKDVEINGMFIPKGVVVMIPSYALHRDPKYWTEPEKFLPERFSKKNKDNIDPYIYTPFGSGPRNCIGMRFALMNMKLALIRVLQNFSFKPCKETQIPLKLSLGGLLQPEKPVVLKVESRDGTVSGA
Compound,"inhibition at 5 min, 10 µM [1] [%]","inhibition at 5 min, 10 µM [2] [%]"
O=C(Nc1ccc(-c2cc3cc(F)c(-c4nnn[nH]4)cc3n2C2CCC2)cc1)C(=O)Nc1ccc(N2CCC(CO)CC2)cc1 [Example 23],5.28,-22.6
O=C(Nc1ccc(-c2cc3cc(F)c(-c4nnn[nH]4)cc3n2C2CCC2)cc1)C(=O)Nc1ccc(N2CCC3(CCOC3)CC2)cc1 [Example 67],13,-0.87
CC1(n2c(-c3ccc(NC(=O)C(=O)Nc4ccc(N5CCC6(CCOC6)CC5)cc4)cc3)cc3cc(F)c(-c4nnn[nH]4)cc32)CCC1 [Example 68],-10.2,2.46
